From patent publication US20060069064A1, “Methods for facilitating recovery of functions of endogenous or implanted or transplanted stem cells using hyaluronic acid” (priority 2003, published 2006)

Columns and labels:
5-FU-treated mice [1] = assay: Bone marrow hematopoiesis in 5-FU-treated mice (cell counts, morphological analysis); format: in vivo; details: 7 days after 5-FU 150 mg/kg i.p.; 15.3±2.2 before
Experimental: Because mature blood cells are a product of proliferation and differentiation of hematopoietic progenitors, we next examined the effect of HA on bone marrow hematopoiesis in 5-FU-treated mice. 5-FU-treated mice (day 0) were administered PBS or 100 μg/mouse HA (as a 0.05%solution in PBS) on day 4, 6, 10, and 13. Bone marrow cells were harvested on days 7, 14, 21, and 28. On day 7 the total number of bone marrow cells in the HA-treated mice was 3.5-fold higher in comparison to the PBS-treated mice (FIG. 2A). To evaluate the effect of HA on different hematopoietic lineages, a morphological analysis of the bone marrow cells was performed as followed. […]
To examine this assumption, bone marrow cells were cultured in methylcellulose to evaluate the number of proliferating lineage-committed progenitors. […] Colonies containing more then 20 cells were counted under the inverted microscope after 7 days of culture. […] Colonies containing at least 500 cells were counted after 14 days. […] We next investigated whether HA stimulation benefited the pool of committed progenitors at the cost of damaging more primitive progenitors that were measured by using a long-term culture-initiating cells (LTC-IC) assay. The number of LTC-IC in the bone marrow of mice treated with HA was evaluated using a limited dilution assay. […]

5-FU-treated mice [2] = details: mouse, in vivo
Experimental: 5-FU was intraperitoneally injected in mice at 150 mg/kg. The counts of white blood cells (WBC), red blood cells (RBC), platelets (PLT), hemoglobin (HGB) and hematocrit (HCT) were monitored daily for two weeks. As expected, the treatment of mice with 5-FU induced severe bone marrow hypoplasia and pancytopenia. The numbers of WBC and PLT dropped from 8.4±1.5×10^6/ml and 678.4±82×10^6/ml before 5-FU administration to 2.52±0.5×10^6/ml and 388±50×10^6/ml, respectively, 7 days later (FIGS. 1A, B). The total number of mononuclear cells in the bone marrow decreased from 15.3±2.2×10^6/femur before to 5.00±0.65×10^6/femur 7 days after 5-FU administration (FIG. 2A). All parameters were recovered to normal in 14 days after 5-FU administration. To examine the effect of HA on 5-FU-perturbed hematopoiesis, 5-FU-treated (day 0) mice were administered 100 μg/mouse HA as a 0.05% solution in PBS (HA from Sigma-Aldrich, Catalog No.: H1751) on days 4, 6, 10, and 13. A control group of animals was treated with a 200-μl injection of PBS. The peripheral blood from HA- and PBS-treated mice was collected daily and examined for numbers of WBC, RBC, PLT, HGB, and HCT. […] The number of PLT in HA-treated mice was increased starting from day 5 and was elevated by a factor of 1.7 on day 8 (FIG. 1B). […]

In the case of `O=c1[nH]cc(F)c(=O)[nH]1` [5-FU, 5-fluorouracil], the “total number of mononuclear cells in the bone marrow” value (5-FU-treated mice [1]) is reported as 5.00±0.65 ×10^6/femur and the “time until all parameters recovered to normal after 5-FU administration” value (5-FU-treated mice [2]) is reported as 14 days.
